Laboratory results as given in US20260347322A1, “BETA ADRENERGIC AGONIST AND METHODS OF USING THE SAME” (CuraSen Therapeutics, Inc., priority 2019, published 2026).

How the values were obtained:
Format in all cases: cell-based
[1] = target: T1, B1-AR (β1 adrenergic receptor) (Homo sapiens, UniProt P08588); test: cAMP homogeneous time-resolved fluorescence (HTRF) assay, β1
T1 construct: expressed in transfected cells
Procedure: (§1) CAMP homogeneous time-resolved fluorescence (HTRF): experimental methods. Compound efficacy is determined using the CAMP Gs dynamic HTRF assay (Cisbio, catalog #62AM4PEC) largely following the manufacturer's instructions, also detailed below.
(§2) Standard serial dilution curves are 10-point, 5-fold dilutions starting from a highest concentration of 10 μM. […] Assay plates are centrifuged at 500×g for 10 seconds. Compounds and IBMX are prepared at 2× final dose to compensate for addition of cells. […]
(§3) Subsequently, 5 μL Anti-cAMP-Eu Donor, diluted 1:21 in detection and lysis buffer 2, was added to cells. […] Plates are centrifuged again at 500×g for 10 seconds, and HTRF was measured using a Tecan Spark plate reader at 50 flashes per well. […] Potency estimates (EC50 and pEC50) are derived from the four-parameter nonlinear regression of the concentration-effect curve and an estimate of relative efficacy is determined by comparing the magnitude of the test compound HTRF signal window (min-max dose) with the signal window of the full agonist control, isoproterenol.

[2] = target: T2, B2-AR (β2 adrenergic receptor) (Homo sapiens, UniProt P07550); test: cAMP homogeneous time-resolved fluorescence (HTRF) assay, β2
T2 construct: expressed in transfected cells
T2 sequence (P07550 whole entry): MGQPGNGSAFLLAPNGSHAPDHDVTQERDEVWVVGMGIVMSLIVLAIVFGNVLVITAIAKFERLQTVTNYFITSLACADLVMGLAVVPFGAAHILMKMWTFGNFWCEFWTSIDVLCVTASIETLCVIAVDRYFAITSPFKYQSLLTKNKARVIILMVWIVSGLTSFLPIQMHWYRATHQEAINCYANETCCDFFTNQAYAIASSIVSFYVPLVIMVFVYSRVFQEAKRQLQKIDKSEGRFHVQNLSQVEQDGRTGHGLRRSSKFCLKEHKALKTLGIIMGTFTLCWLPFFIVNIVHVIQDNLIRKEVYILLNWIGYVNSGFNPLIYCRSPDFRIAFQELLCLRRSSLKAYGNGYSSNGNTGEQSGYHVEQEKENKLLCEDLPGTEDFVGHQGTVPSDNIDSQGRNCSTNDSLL
Procedure: as §1, §2, §3

[3] = test system: Endogenous beta-adrenergic receptor, 1321N1 cells; test: cAMP homogeneous time-resolved fluorescence (HTRF) assay, endogenous receptor; settings: 30 min, 37 °C
Procedure: as §1
Compound Preparation: Candidate beta-adrenergic compounds, dissolved to 10 mM in DMSO, are diluted in 1× stimulation buffer 1 (Cisbio Part #64Sβ1FDD) containing 1 mM 3-Isobutyl-1-methylxanthene (IBMX; Cayman Chemical Company, catalog #13347). Serial dilutions are made in a 96 well V-bottom polypropylene compound microplate (Corning, catalog #3363) in stimulation buffer containing 1 mM IBMX, to 2× of the final desired concentration. Standard serial dilution curves are 10-point, 5-fold dilutions starting from a highest concentration of 10 μM. Controls present on every assay plate are 0.1% DMSO (vehicle control), 1 μM isoproterenol (full beta-adrenergic agonist control) and 15 μM xamoterol (partial beta-adrenergic agonist control). 5 μL from the 2× compound plate is stamped into a white 384 round well small volume HiBase assay plate (Greiner Bio-One; catalog #784075) to provide 4 technical replicates per concentration, per compound. Assay plates are centrifuged at 500×g for 10 seconds. Compounds and IBMX are prepared at 2× final dose to compensate for addition of cells.
Cell Preparation: 1× stimulation buffer, washing PBS (Dulbecco's phosphate-buffered saline, —Mg—Ca; Caisson Labs, catalog #PBL01), assay PBS (Dulbecco's phosphate-buffered saline, +Mg, +Ca; Caisson Labs, catalog #PBL02) and Versene (0.02% EDTA disodium salt solution in PBS without calcium or magnesium; Caisson Labs, catalog #EDL01) are pre-warmed to 37 °C Cells expressing beta-adrenergic receptor were washed in washing PBS to remove growth medium and then released from the surface by incubating with Versene for 5-10 minutes at 37 °C. Cells are harvested using assay PBS, counted manually by hemocytometer or by an automated cell counter, pelleted by centrifugation (200×g, 5 minutes) and resuspended in 37 °C. 1× stimulation buffer to a final density of 1.5×10^6 cells/mL. […]
HTRF Reagent Addition, Reading and Data Analysis: After 30 minutes of cell stimulation with test compound, the assay plates are centrifuged at 500×g for 10 seconds, and incubation was stopped with the addition of 5 μL cAMP-D2 acceptor, diluted 1:21 in detection and lysis buffer 2 (Cisbio 62CL2FDF) was added to all cells. […] Plates are centrifuged again at 500×g for 10 seconds, and HTRF was measured using a Tecan Spark plate reader at 50 flashes per well. HTRF ratios (665 nm/620 nm×10,000) are determined and plotted in GraphPad Prism to generate a concentration-effect curve. […]

T1 sequence (P08588 whole entry): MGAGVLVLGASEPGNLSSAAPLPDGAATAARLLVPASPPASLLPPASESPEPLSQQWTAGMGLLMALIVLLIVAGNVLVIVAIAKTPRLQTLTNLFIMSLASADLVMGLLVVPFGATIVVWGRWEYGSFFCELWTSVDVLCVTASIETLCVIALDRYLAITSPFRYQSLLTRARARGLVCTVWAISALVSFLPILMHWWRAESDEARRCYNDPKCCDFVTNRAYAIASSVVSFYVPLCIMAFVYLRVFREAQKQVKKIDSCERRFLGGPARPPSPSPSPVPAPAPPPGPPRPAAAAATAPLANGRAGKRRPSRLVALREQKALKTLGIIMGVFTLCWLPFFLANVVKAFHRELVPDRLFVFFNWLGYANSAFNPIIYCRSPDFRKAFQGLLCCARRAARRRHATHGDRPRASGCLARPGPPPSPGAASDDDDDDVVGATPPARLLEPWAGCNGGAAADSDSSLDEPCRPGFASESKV

Row | Structure (SMILES) | EC50 [1] [nM] | EC50 [2] [nM] | Average pEC50 [Receptor subtype: Endogenous; Cell type: 1321N1] [3]
1 | CC(C)(C)NC[C@H](O)c1cncc2[nH]ncc12 [Compound 04-153] | > 1000 | 10 to 100 | –
2 | CC(C)(C)NC[C@@H](O)c1cccc(N)n1 [Compound 02-6] | – | – | C (C =< 7-6)
3 | CC(C)(C)NC[C@@H](O)c1cccc(O)n1 [Compound 02-8] | – | – | D (D < 6)
4 | CC(C)(C)NC[C@H](O)c1cccc(O)n1 [Compound 02-7] | – | – | D (D < 6)
5 | CC(C)(C)NC[C@H](O)c1cnc(N)c(Cl)c1 [Compound 02-1] | – | – | C (C =< 7-6)
